Toxic doses and inconclusive results are not listed. Rule as the data show it: active = T/C of 150% or more; inactive = T/C below 125%.
System: L1210 leukemia ip in BDF1 mice, survival T/C
Experiment: NCI In Vivo Anticancer Drug Screen. Data for tumor model L1210 Leukemia (intraperitoneal) in B6D2F1 (BDF1) mice
Conditions: endpoint: mean survival time, higher = longer survival
Summary of the method: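 Value reflects the ratio of survival in compound-treated mice to survival in vehicle-treated controls, with both groups carrying the same transplanted tumor.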

[1] = dose: 100.0 mg/kg/injection, schedule: Q01DX009 (ip), vehicle: Klucel (hydroxypropylcellulose) (HPC)
[2] = dose: 200.0 mg/kg/injection, schedule: Q01DX009 (ip), vehicle: Klucel (hydroxypropylcellulose) (HPC)
[3] = dose: 400.0 mg/kg/injection, schedule: Q01DX009 (ip), vehicle: Klucel (hydroxypropylcellulose) (HPC)
[4] = dose: 100.0 mg/kg/injection, schedule: Q04DX003 (ip), vehicle: Klucel (hydroxypropylcellulose) (HPC)
[5] = dose: 200.0 mg/kg/injection, schedule: Q04DX003 (ip), vehicle: Klucel (hydroxypropylcellulose) (HPC)
[6] = dose: 400.0 mg/kg/injection, schedule: Q04DX003 (ip), vehicle: Klucel (hydroxypropylcellulose) (HPC)
[7] = dose: 100.0 mg/kg/injection, schedule: Q01DX001 (ip), vehicle: carboxymethylcellulose (CMC)
[8] = dose: 200.0 mg/kg/injection, schedule: Q01DX001 (ip), vehicle: carboxymethylcellulose (CMC)
[9] = dose: 400.0 mg/kg/injection, schedule: Q01DX001 (ip), vehicle: carboxymethylcellulose (CMC)
[10] = dose: 100.0 mg/kg/injection, schedule: Q01DX001 (ip), vehicle: saline
[11] = dose: 200.0 mg/kg/injection, schedule: Q01DX001 (ip), vehicle: saline
[12] = dose: 400.0 mg/kg/injection, schedule: Q01DX001 (ip), vehicle: saline
[13] = dose: 25.0 mg/kg/injection, schedule: Q01DX009 (ip), vehicle: saline

Measured: T/C

CCOC(=O)C1OC12CCCCC2 (stereo not drawn)
inactive: [1] 100 % of control | dose: 100.0 mg/kg/injection, schedule: Q04DX003 (ip), vehicle: saline 92 % of control | [2] 92 % of control | dose: 200.0 mg/kg/injection, schedule: Q04DX003 (ip), vehicle: saline 96 % of control | [3] 100 % of control | dose: 400.0 mg/kg/injection, schedule: Q04DX003 (ip), vehicle: saline 89 % of control

COc1ccc(C(=O)N(C)c2ccccc2)cc1
inactive: [4] 94 % of control | [5] 89 % of control | [6] 93 % of control

O=C1c2ccccc2C(=O)N1C1CCC(CO)C1 (stereo not drawn)
inactive: [7] 106 % of control | [8] 102 % of control | [9] 91 % of control

CC1(C)C2CCC(C2)C12CC(F)(F)C(F)(F)S2 (stereo not drawn)
inactive: dose: 12.5 mg/kg/injection, schedule: Q01DX009 (ip), vehicle: saline with Tween-80 97 % of control | dose: 25.0 mg/kg/injection, schedule: Q01DX009 (ip), vehicle: saline with Tween-80 100 % of control | dose: 25.0 mg/kg/injection, schedule: Q04DX003 (ip), vehicle: saline with Tween-80 101 % of control | dose: 50.0 mg/kg/injection, schedule: Q04DX003 (ip), vehicle: saline with Tween-80 101 % of control | dose: 100.0 mg/kg/injection, schedule: Q04DX003 (ip), vehicle: saline with Tween-80 103 % of control

CNC(=O)Nc1cc(Cl)c(OC)cc1OC
inactive: [1] 96 % of control | [2] 95 % of control | [3] 96 % of control

COC(C#N)C(=N)CC#N (stereo not drawn)
inactive: dose: 9.5 mg/kg/injection, schedule: Q01DX001 (ip), vehicle: saline 107 % of control | dose: 19.0 mg/kg/injection, schedule: Q01DX001 (ip), vehicle: saline 101 % of control

O=C(COc1ccc(Cl)c(Cl)c1)Nc1ccc[n+](Cc2cc(Cl)ccc2S(=O)(=O)F)c1
inactive: [10] 97 % of control | [11] 105 % of control | [12] 94 % of control

CCN(CC)CCCOC(=O)c1ccc(NC(C)(C)[N+](=O)[O-])cc1
inactive: [13] 98 % of control | dose: 50.0 mg/kg/injection, schedule: Q01DX009 (ip), vehicle: saline 91 % of control | [10] 90 % of control

Nc1nc(N)c(CCCOc2ccc(NC(=O)CCCc3ccc(NC(=O)CBr)cc3)cc2)c(N)n1
inactive: [4] 102 % of control | [5] 109 % of control | [6] 102 % of control

N#CC1(c2ccccc2)CCCC1(C#N)c1ccccc1 (stereo not drawn)
inactive: dose: 75.0 mg/kg/injection, schedule: Q01DX001 (ip), vehicle: carboxymethylcellulose (CMC) 86 % of control | dose: 150.0 mg/kg/injection, schedule: Q01DX001 (ip), vehicle: carboxymethylcellulose (CMC) 88 % of control | dose: 300.0 mg/kg/injection, schedule: Q01DX001 (ip), vehicle: carboxymethylcellulose (CMC) 86 % of control

CN(C)CCSC(CO)c1ccccc1 (stereo not drawn)
inactive: [7] 96 % of control | [8] 89 % of control | [9] 94 % of control

c1ccc(-c2cn[nH]c2-c2ccccc2)cc1
inactive: dose: 100.0 mg/kg/injection, schedule: Q04DX002 (ip), vehicle: saline with Tween-80 103 % of control | dose: 200.0 mg/kg/injection, schedule: Q04DX002 (ip), vehicle: saline with Tween-80 100 % of control | dose: 400.0 mg/kg/injection, schedule: Q04DX002 (ip), vehicle: saline with Tween-80 106 % of control

CC1CCCC/C1=N/NC(=O)c1ccccc1 (stereo not drawn)
inactive: dose: 50.0 mg/kg/injection, schedule: Q01DX009 (ip), vehicle: saline with Tween-80 95 % of control | dose: 100.0 mg/kg/injection, schedule: Q01DX009 (ip), vehicle: saline with Tween-80 110 % of control | dose: 200.0 mg/kg/injection, schedule: Q01DX009 (ip), vehicle: saline with Tween-80 108 % of control

CC(C)(C)N=C(N)N[N+](=O)[O-]
inactive: dose: 50.0 mg/kg/injection, schedule: Q04DX002 (ip), vehicle: Klucel (hydroxypropylcellulose) (HPC) 104 % of control | dose: 100.0 mg/kg/injection, schedule: Q04DX002 (ip), vehicle: Klucel (hydroxypropylcellulose) (HPC) 100 % of control | dose: 200.0 mg/kg/injection, schedule: Q04DX002 (ip), vehicle: Klucel (hydroxypropylcellulose) (HPC) 104 % of control

COc1ccc(OC)c(/C=C/c2ccc3ccccc3[n+]2C)c1
inactive: dose: 5.0 mg/kg/injection, schedule: Q04DX003 (ip), vehicle: saline with Tween-80 110 % of control | dose: 10.0 mg/kg/injection, schedule: Q04DX003 (ip), vehicle: saline with Tween-80 111 % of control | dose: 20.0 mg/kg/injection, schedule: Q04DX003 (ip), vehicle: saline with Tween-80 117 % of control

CCCCCCC1(C)NC(=O)NC1=O (stereo not drawn)
inactive: [10] 102 % of control | [11] 100 % of control | [12] 96 % of control

Nc1nc(S)c(N)c(=S)[nH]1
inactive: dose: 9.5 mg/kg/injection, schedule: Q01DX001 (ip), vehicle: carboxymethylcellulose (CMC) 105 % of control | dose: 19.0 mg/kg/injection, schedule: Q01DX001 (ip), vehicle: carboxymethylcellulose (CMC) 94 % of control | dose: 38.0 mg/kg/injection, schedule: Q01DX001 (ip), vehicle: carboxymethylcellulose (CMC) 97 % of control

c1ccc(-c2ccc([Si](c3ccccc3)(c3ccccc3)c3ccccc3)cc2)cc1
inactive: [1] 102 % of control | [4] 105 % of control | [2] 96 % of control | [5] 94 % of control | [3] 93 % of control | [6] 96 % of control

N/C(=N/O)c1cn(C2OC(CO)C(O)C2O)c2ncnc(NO)c12 (stereo not drawn)
inactive: dose: 12.5 mg/kg/injection, schedule: Q01DX009 (ip), vehicle: saline 121 % of control | [13] 86 % of control

— PubChem BioAssay AID248 (DTP/NCI, 2004)
